Laboratory results as given in ChEMBL document CHEMBL2440051, “Structure-activity relationships of lanostane-type triterpenoids from Ganoderma lingzhi as α-glucosidase inhibitors” (Bioorg Med Chem Lett, 2013).
pIC50: −log10 of the molar value.

Assays:
[1] = Inhibition of alpha-glucosidase (unknown origin) using sucrose as substrate assessed as formation of glucose after 30 mins by glucose oxidase method; set-up: species or system Homo sapiens
[2] = organism: Homo sapiens; assay: Ratio of acarbose IC50 to compound IC50 for alpha-glucosidase (unknown origin)

SMILES | pIC50 [1] | Ratio IC50 [2]
COC(=O)C(C)CC(=O)C[C@@H](C)[C@H]1CC(=O)[C@@]2(C)C3=C([C@@H](O)C[C@]12C)[C@@]1(C)CCC(=O)C(C)(C)[C@@H]1C[C@@H]3O (stereo partly drawn) | < 3.22 | 
C[C@H]1O[C@H](O[C@H]2[C@H](O)[C@@H](O)[C@@H](O[C@H]3[C@H](O)[C@@H](O)C(O)O[C@@H]3CO)O[C@@H]2CO)[C@H](O)[C@@H](O)[C@@H]1N[C@H]1C=C(CO)[C@@H](O)[C@H](O)[C@H]1O (stereo partly drawn) [ACARBOSE] | 3.28 | 
C/C(=C\C(=O)CC(C)C(=O)O)[C@H]1C[C@H](O)[C@@]2(C)C3=C(C(=O)C[C@]12C)[C@@]1(C)CCC(=O)C(C)(C)[C@@H]1C[C@@H]3O (stereo partly drawn) [GANODERENIC ACID A] | 3.35 | 
C[C@H](CC(=O)C[C@@H](C)[C@H]1C[C@H](O)[C@@]2(C)C3=C(C(=O)C[C@]12C)[C@@]1(C)CCC(=O)C(C)(C)[C@@H]1C[C@@H]3O)C(=O)O [GANODERIC ACID A] | 3.28 | 
CC(CC(=O)C[C@@H](C)[C@H]1CC(=O)[C@@]2(C)C3=C(C(=O)C[C@]12C)[C@@]1(C)CC[C@H](O)C(C)(C)[C@@H]1C[C@@H]3O)C(=O)O (stereo partly drawn) [GANODERIC ACID B] | 3.33 | 
C[C@H](CC(=O)C[C@@H](C)[C@H]1CC(=O)[C@@]2(C)C3=C(C(=O)C[C@]12C)[C@@]1(C)CCC(=O)C(C)(C)[C@@H]1C[C@@H]3O)C(=O)O [GANODERIC ACID C1] | < 3.22 | 
C[C@H](CC(=O)C[C@@H](C)[C@H]1C[C@H](O)[C@@]2(C)C3=C(C(=O)C[C@]12C)[C@@]1(C)CC[C@H](O)C(C)(C)[C@@H]1C[C@@H]3O)C(=O)O [GANODERIC ACID C2] | < 3.22 | 
CC(CC(=O)C[C@@H](C)[C@H]1CC(=O)[C@@]2(C)C3=C(C(=O)[C@@H](O)[C@]12C)[C@@]1(C)CC[C@H](O)C(C)(C)[C@@H]1CC3=O)C(=O)O (stereo partly drawn) [GANODERIC ACID C6] | < 3.22 | 
CC(CC(=O)C[C@@H](C)[C@H]1CC(=O)[C@@]2(C)C3=C([C@@H](O)C[C@]12C)[C@@]1(C)CCC(=O)C(C)(C)[C@@H]1C[C@@H]3O)C(=O)O (stereo partly drawn) [GANODERIC ACID DF] | 3.66 | 2.5
CC(CC(=O)C[C@@H](C)[C@H]1CC(=O)[C@@]2(C)C3=C(C(=O)C[C@]12C)[C@@]1(C)CCC(=O)C(C)(C)[C@@H]1C[C@@H]3O)C(=O)O (stereo partly drawn) [GANODERIC ACID D] | < 3.22 | 
CC(CC(=O)C[C@@H](C)[C@H]1CC(=O)[C@@]2(C)C3=C(C(=O)[C@@H](O)[C@]12C)[C@@]1(C)CC[C@H](O)C(C)(C)[C@@H]1C[C@@H]3O)C(=O)O (stereo partly drawn) [GANODERIC ACID G] | < 3.22 | 
CC(=O)O[C@@H]1C(=O)C2=C(C(=O)C[C@H]3C(C)(C)[C@@H](O)CC[C@]23C)[C@]2(C)C(=O)C[C@H]([C@H](C)CC(=O)CC(C)C(=O)O)[C@@]12C (stereo partly drawn) [GANODERIC ACID H] | < 3.22 | 
CC(CC(=O)C[C@@H](C)[C@H]1C[C@H](O)[C@@]2(C)C3=C(C(=O)C[C@]12C)[C@@]1(C)CCC(=O)C(C)(C)[C@@H]1CC3=O)C(=O)O (stereo partly drawn) [GANODERIC ACID J] | < 3.22 | 
CC(=O)O[C@@H]1C(=O)C2=C([C@@H](O)C[C@H]3C(C)(C)[C@@H](O)CC[C@]23C)[C@]2(C)C(=O)C[C@H]([C@H](C)CC(=O)CC(C)C(=O)O)[C@@]12C (stereo partly drawn) [GANODERIC ACID K] | < 3.22 | 
C[C@H](CCC=C(CO)CO)[C@H]1CC[C@@]2(C)C3=CC[C@H]4C(C)(C)C(=O)CC[C@]4(C)C3=CC[C@]12C [GANODERIOL F] | 3.68 | 3
C[C@H](CC[C@H](O)[C@](C)(O)CO)[C@H]1CC[C@@]2(C)C3=CC[C@H]4C(C)(C)C(=O)CC[C@]4(C)C3=CC[C@]12C [GANODERMANONTRIOL] | 3.27 | 
C/C(=C\CC[C@@H](C)[C@H]1CC[C@@]2(C)C3=CC[C@H]4C(C)(C)[C@@H](O)CC[C@]4(C)C3=CC[C@]12C)CO [GANODEROL B] | 3.96 | 5
CC(CC(=O)C[C@@H](C)[C@H]1C[C@H](O)[C@@]2(C)C3=C(C(=O)C[C@]12C)[C@@]1(C)CC[C@H](O)C(C)(C)[C@@H]1CC3)C(=O)O (stereo partly drawn) [GANOLUCIDIC ACID B] | < 3.22 | 
COC(=O)C(C)CC(=O)C[C@@H](C)[C@H]1C[C@H](O)[C@@]2(C)C3=C(C(=O)C[C@]12C)[C@@]1(C)CCC(=O)C(C)(C)[C@@H]1C[C@@H]3O (stereo partly drawn) [METHYL GANODERATE A] | < 3.22 | 
COC(=O)C(C)CC(=O)/C=C(\C)[C@H]1C[C@H](O)[C@@]2(C)C3=C(C(=O)C[C@]12C)[C@@]1(C)CCC(=O)C(C)(C)[C@@H]1C[C@@H]3O (stereo partly drawn) [METHYL GANODERENATE A] | < 3.22 | 
